Results: patent US20250120960A1, “Compositions and Methods for Treatment of Inflammatory Bowel Disease” (Nocion Therapeutics, Inc., priority 2022, published 2025)

Experiments:
[1] = tested on: DSS mouse model of ulcerative colitis; assay: DSS mouse model of ulcerative colitis: Disease Activity Index, plasma and colon cytokines, colon histopathology; assay type: in vivo, mice; settings: for amount of crypt damage (colon histopathology) / colon IL-15 level increased by DSS / colon KC level increased by DSS / colon RANTES level increased by DSS / degree of inflammatory infiltrate (colon histopathology) / layer to which the infiltration extended (extent of infiltration, colon histopathology): colon collected day 7; for improvement (reduction) in the Disease Activity Index (DAI): mice given 2.5% DSS in drinking water for 6 days, NTX 1170 100 mg/kg QD PO, infliximab 5 mg/kg QD IP, tofacitinib 5 mg/kg BID PO
Procedure: (§1) Body weights, stool consistency and the presence of blood in the stool were measured over the 6 days and comprised the Disease Activity Index (DAI). On day 7 the study was terminated, and the colon and plasma were collected for cytokine measurements, histology evaluation and for pharmacokinetic (PK) analysis.

[2] = Pharmacokinetic (PK) analysis of terminal plasma and colon samples in DSS mice; assay type: in vivo; settings: 100 mg/kg QD PO
Procedure: as §1

[3] = plasma collected day 7, 2.5% DSS 6 days

For `Cc1cccc(C)c1NC(=O)C[N+]1(Cc2ccccc2)CCCCC1.[Br-]` [NTX-1170], the “amount of crypt damage (colon histopathology)” value ([1]; 2.5% DSS 6 days) was “significantly reduced”, the “colon IL-15 level increased by DSS” value ([1]; 2.5% DSS 6 days) was “significantly reduced” and the “colon KC level increased by DSS” value ([1]; 2.5% DSS 6 days) was “significantly reduced”. For the same compound, the “colon RANTES level increased by DSS” value ([1]; 2.5% DSS 6 days) was “significantly reduced”, the “degree of inflammatory infiltrate (colon histopathology)” value ([1]; 2.5% DSS 6 days) was “significantly reduced” and the “layer to which the infiltration extended (extent of infiltration, colon histopathology)” value ([1]; 2.5% DSS 6 days) was “significantly reduced”. The “improvement (reduction) in the Disease Activity Index (DAI)” value [1] was 60%, the “plasma G-CSF level upregulated by DSS” value [1, 3] was “significantly reduced” and the “plasma IP-10 level upregulated by DSS” value [1, 3] was “significantly reduced”. The “plasma MIG level upregulated by DSS” value [1, 3] was “significantly reduced”, the “plasma Mip-1β level upregulated by DSS” value [1, 3] was “significantly reduced” and the “plasma TNF-α level upregulated by DSS” value [1, 3] was “significantly reduced”. The Kp ([2]; mouse, colon and plasma, terminal samples, read-out: colon/plasma ratio) was over 3500, the “level of compound in the colon” value ([2]; terminal colon sample) was “high levels” and the “level of compound in the plasma” value ([2]; terminal plasma sample) was “very low levels”.

In the case of `C[C@@H]1CCN(C(=O)CC#N)C[C@@H]1N(C)c1ncnc2[nH]ccc12` [tofacitinib], the “colon IL-15 level increased by DSS” value ([1]; 2.5% DSS 6 days) was “neither tofacitinib nor infliximab significantly reduced”, the “colon KC level increased by DSS” value ([1]; 2.5% DSS 6 days) was “neither tofacitinib nor infliximab significantly reduced” and the “colon RANTES level increased by DSS” value ([1]; 2.5% DSS 6 days) was “neither tofacitinib nor infliximab significantly reduced”. For the same compound, the “layer to which the infiltration extended (extent of infiltration, colon histopathology)” value ([1]; 2.5% DSS 6 days) was “reduced”, the “improvement (reduction) in the Disease Activity Index (DAI)” value [1] was 38% and the “plasma G-CSF level upregulated by DSS” value [1, 3] was “significantly reduced”. For the same compound, the “plasma MIG level upregulated by DSS” value [1, 3] was “significantly reduced”, the “plasma Mip-1β level upregulated by DSS” value [1, 3] was “significantly reduced” and the “plasma TNF-α level upregulated by DSS” value [1, 3] was “significantly reduced”.

With infliximab the “amount of crypt damage (colon histopathology)” value ([1]; 2.5% DSS 6 days) was “no significant effect”, the “colon IL-15 level increased by DSS” value ([1]; 2.5% DSS 6 days) was “neither tofacitinib nor infliximab significantly reduced” and the “colon KC level increased by DSS” value ([1]; 2.5% DSS 6 days) was “neither tofacitinib nor infliximab significantly reduced”. The “colon RANTES level increased by DSS” value ([1]; 2.5% DSS 6 days) was “neither tofacitinib nor infliximab significantly reduced”, the “degree of inflammatory infiltrate (colon histopathology)” value ([1]; 2.5% DSS 6 days) was “no significant effect” and the “layer to which the infiltration extended (extent of infiltration, colon histopathology)” value ([1]; 2.5% DSS 6 days) was “no significant effect”. For the same compound, the “plasma G-CSF level upregulated by DSS” value [1, 3] was “reduced”, the “plasma Mip-1β level upregulated by DSS” value [1, 3] was “reduced” and the “plasma TNF-α level upregulated by DSS” value [1, 3] was “reduced”.
